Assay results published in PubChem BioAssay (NCI).
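Protocol summary: plate cells (96-well), add compound at 5 concentrations, incubate 48 h, interpolate endpoints linearly. GI50 is the concentration that inhibits growth by half. Definition used: TGI = concentration required for complete inhibition of growth.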

Experiments:
Assay in all cases: NCI anticancer screen, dose series, 48 h
786-0 renal = tested on: 786-0 renal
A498 renal = tested on: A498 renal
A549 NSCLC = tested on: A549 NSCLC
ACHN renal = tested on: ACHN renal
CAKI-1 renal = tested on: CAKI-1 renal
CCRF-CEM leukemia = tested on: CCRF-CEM leukemia
COLO 205 colon = tested on: COLO 205 colon
DLD-1 colon = tested on: DLD-1 colon
DMS 114 small cell lung = tested on: DMS 114 small cell lung
EKVX NSCLC = tested on: EKVX NSCLC
HCC-2998 colon = tested on: HCC-2998 colon
HCT-116 colon = tested on: HCT-116 colon
HCT-15 colon = tested on: HCT-15 colon
HOP-18 NSCLC = tested on: HOP-18 NSCLC
HOP-62 NSCLC = tested on: HOP-62 NSCLC
HOP-92 NSCLC = tested on: HOP-92 NSCLC
HT29 colon = tested on: HT29 colon
IGROV1 ovarian = tested on: IGROV1 ovarian
K-562 leukemia = tested on: K-562 leukemia
KM12 colon = tested on: KM12 colon
KM20L2 colon = tested on: KM20L2 colon
LOX IMVI melanoma = tested on: LOX IMVI melanoma
LXFL 529 NSCLC = tested on: LXFL 529 NSCLC
M14 melanoma = tested on: M14 melanoma
M19-MEL melanoma = tested on: M19-MEL melanoma
MALME-3M melanoma = tested on: MALME-3M melanoma
NCI-H226 lung = tested on: NCI-H226 lung
NCI-H23 lung = tested on: NCI-H23 lung
NCI-H460 lung = tested on: NCI-H460 lung
NCI-H522 lung = tested on: NCI-H522 lung
OVCAR-3 ovarian = tested on: OVCAR-3 ovarian
OVCAR-4 ovarian = tested on: OVCAR-4 ovarian
OVCAR-5 ovarian = tested on: OVCAR-5 ovarian
OVCAR-8 ovarian = tested on: OVCAR-8 ovarian
RPMI-8226 leukemia = tested on: RPMI-8226 leukemia
RXF-631 renal = tested on: RXF-631 renal
SF-268 CNS = tested on: SF-268 CNS
SF-295 CNS = tested on: SF-295 CNS
SF-539 CNS = tested on: SF-539 CNS
SK-MEL-28 melanoma = tested on: SK-MEL-28 melanoma
SK-MEL-5 melanoma = tested on: SK-MEL-5 melanoma
SK-OV-3 ovarian = tested on: SK-OV-3 ovarian
SN12C renal = tested on: SN12C renal
SNB-19 CNS = tested on: SNB-19 CNS
SNB-75 CNS = tested on: SNB-75 CNS
SNB-78 CNS = tested on: SNB-78 CNS
SW-620 colon = tested on: SW-620 colon
TK-10 renal = tested on: TK-10 renal
U251 CNS = tested on: U251 CNS
UACC-257 melanoma = tested on: UACC-257 melanoma
UACC-62 melanoma = tested on: UACC-62 melanoma
UO-31 renal = tested on: UO-31 renal
XF 498 CNS = tested on: XF 498 CNS

C[CH2][Ge]([CH2]C)([CH2]C)[O]C(=O)C(OC(C)=O)c1ccccc1 (stereo not given) was tested, and the GI50 (786-0 renal) was > 100 µM, the TGI (786-0 renal) was > 100 µM and the GI50 (A498 renal) was > 100 µM. For the same compound, the TGI (A498 renal) was > 100 µM, the GI50 (A549 NSCLC) was > 100 µM and the TGI (A549 NSCLC) was > 100 µM. For the same compound, the GI50 (ACHN renal) was > 100 µM, the TGI (ACHN renal) was > 100 µM and the GI50 (CAKI-1 renal) was > 100 µM. For the same compound, the TGI (CAKI-1 renal) was > 100 µM, the GI50 (CCRF-CEM leukemia) was 24.1 µM and the TGI (CCRF-CEM leukemia) was > 100 µM. The GI50 (COLO 205 colon) was > 100 µM, the TGI (COLO 205 colon) was > 100 µM and the GI50 (DLD-1 colon) was > 100 µM. For the same compound, the TGI (DLD-1 colon) was > 100 µM, the GI50 (DMS 114 small cell lung) was 42.1 µM and the TGI (DMS 114 small cell lung) was > 100 µM. The GI50 (EKVX NSCLC) was 38.3 µM, the TGI (EKVX NSCLC) was > 100 µM and the GI50 (HCC-2998 colon) was > 100 µM. For the same compound, the TGI (HCC-2998 colon) was > 100 µM, the GI50 (HCT-116 colon) was > 100 µM and the TGI (HCT-116 colon) was > 100 µM. For the same compound, the GI50 (HCT-15 colon) was > 100 µM, the TGI (HCT-15 colon) was > 100 µM and the GI50 (HOP-18 NSCLC) was > 100 µM. The TGI (HOP-18 NSCLC) was > 100 µM, the GI50 (HOP-62 NSCLC) was > 100 µM and the TGI (HOP-62 NSCLC) was > 100 µM. The GI50 (HOP-92 NSCLC) was 57.9 µM, the TGI (HOP-92 NSCLC) was > 100 µM and the GI50 (HT29 colon) was > 100 µM. For the same compound, the TGI (HT29 colon) was > 100 µM, the GI50 (IGROV1 ovarian) was > 100 µM and the TGI (IGROV1 ovarian) was > 100 µM. The GI50 (K-562 leukemia) was > 100 µM, the TGI (K-562 leukemia) was > 100 µM and the GI50 (KM12 colon) was > 100 µM. The TGI (KM12 colon) was > 100 µM, the GI50 (KM20L2 colon) was > 100 µM and the TGI (KM20L2 colon) was > 100 µM. For the same compound, the GI50 (LOX IMVI melanoma) was > 100 µM, the TGI (LOX IMVI melanoma) was > 100 µM and the GI50 (LXFL 529 NSCLC) was > 100 µM. For the same compound, the TGI (LXFL 529 NSCLC) was > 100 µM, the GI50 (M14 melanoma) was > 100 µM and the TGI (M14 melanoma) was > 100 µM. The GI50 (M19-MEL melanoma) was > 100 µM, the TGI (M19-MEL melanoma) was > 100 µM and the GI50 (MALME-3M melanoma) was > 100 µM. For the same compound, the TGI (MALME-3M melanoma) was > 100 µM, the GI50 (NCI-H226 lung) was > 100 µM and the TGI (NCI-H226 lung) was > 100 µM. The GI50 (NCI-H23 lung) was > 100 µM, the TGI (NCI-H23 lung) was > 100 µM and the GI50 (NCI-H460 lung) was > 100 µM. The TGI (NCI-H460 lung) was > 100 µM, the GI50 (NCI-H522 lung) was > 100 µM and the TGI (NCI-H522 lung) was > 100 µM. For the same compound, the GI50 (OVCAR-3 ovarian) was > 100 µM, the TGI (OVCAR-3 ovarian) was > 100 µM and the GI50 (OVCAR-4 ovarian) was > 100 µM. For the same compound, the TGI (OVCAR-4 ovarian) was > 100 µM, the GI50 (OVCAR-5 ovarian) was > 100 µM and the TGI (OVCAR-5 ovarian) was > 100 µM. For the same compound, the GI50 (OVCAR-8 ovarian) was > 100 µM, the TGI (OVCAR-8 ovarian) was > 100 µM and the GI50 (RPMI-8226 leukemia) was 31 µM. The TGI (RPMI-8226 leukemia) was > 100 µM, the GI50 (RXF-631 renal) was > 100 µM and the TGI (RXF-631 renal) was > 100 µM. For the same compound, the GI50 (SF-268 CNS) was > 100 µM, the TGI (SF-268 CNS) was > 100 µM and the GI50 (SF-295 CNS) was > 100 µM. The TGI (SF-295 CNS) was > 100 µM, the GI50 (SF-539 CNS) was > 100 µM and the TGI (SF-539 CNS) was > 100 µM. The GI50 (SK-MEL-28 melanoma) was > 100 µM, the TGI (SK-MEL-28 melanoma) was > 100 µM and the GI50 (SK-MEL-5 melanoma) was 71.6 µM. For the same compound, the TGI (SK-MEL-5 melanoma) was > 100 µM, the GI50 (SK-OV-3 ovarian) was > 100 µM and the TGI (SK-OV-3 ovarian) was > 100 µM. For the same compound, the GI50 (SN12C renal) was > 100 µM, the TGI (SN12C renal) was > 100 µM and the GI50 (SNB-19 CNS) was > 100 µM. For the same compound, the TGI (SNB-19 CNS) was > 100 µM, the GI50 (SNB-75 CNS) was > 100 µM and the TGI (SNB-75 CNS) was > 100 µM. For the same compound, the GI50 (SNB-78 CNS) was > 100 µM, the TGI (SNB-78 CNS) was > 100 µM and the GI50 (SW-620 colon) was > 100 µM. For the same compound, the TGI (SW-620 colon) was > 100 µM, the GI50 (TK-10 renal) was > 100 µM and the TGI (TK-10 renal) was > 100 µM. The GI50 (U251 CNS) was > 100 µM, the TGI (U251 CNS) was > 100 µM and the GI50 (UACC-257 melanoma) was > 100 µM. For the same compound, the TGI (UACC-257 melanoma) was > 100 µM, the GI50 (UACC-62 melanoma) was > 100 µM and the TGI (UACC-62 melanoma) was > 100 µM. For the same compound, the GI50 (UO-31 renal) was > 100 µM, the TGI (UO-31 renal) was > 100 µM and the TGI (XF 498 CNS) was 31 µM.
